Structures are written as SMILES.

For one experiment, the target named is T1, Cloned Human Dopamine D3 Receptors (Homo sapiens, UniProt P35462).
T1 construct: expressed in transfected cells; membrane homogenate
T1 sequence (P35462 whole entry): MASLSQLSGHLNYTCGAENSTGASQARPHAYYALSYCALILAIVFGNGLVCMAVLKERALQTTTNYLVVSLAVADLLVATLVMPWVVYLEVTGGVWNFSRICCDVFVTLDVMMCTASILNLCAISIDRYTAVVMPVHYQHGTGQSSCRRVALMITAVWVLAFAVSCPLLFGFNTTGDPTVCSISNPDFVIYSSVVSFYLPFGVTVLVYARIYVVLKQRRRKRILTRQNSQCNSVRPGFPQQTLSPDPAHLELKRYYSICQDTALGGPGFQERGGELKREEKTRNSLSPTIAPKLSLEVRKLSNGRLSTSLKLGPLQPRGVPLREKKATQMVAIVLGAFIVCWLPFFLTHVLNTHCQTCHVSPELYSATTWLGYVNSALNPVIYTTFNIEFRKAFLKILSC
Description: [N-Methyl-3H]Spiroperidol binding to cloned human dopamine D3 receptors. To be noted: Table 2; unit inferred; read-out: d3Ki. From the text:
[N-Methyl-^3H]Spiroperidol Binding to Cloned Human Dopamine D3 Receptors
This assay measures the in vitro activity of compounds on cloned human dopamine (D3) receptors and predicts the direct dopamine-blocking properties of putative neuropsychiatric agents at human dopamine D3 receptors.
The D3 gene was isolated from a human striatal cDNA library (Stratagene). The gene was sequenced and sub-cloned into the expression vector RC/RSV (Invitrogen). CHO (Chinese Hamster Ovary) cells were stably transfected with 10 µg of the D3/RSV plasmid using the DOTAP method from Boehringer Mannheim and 72 clones that were G418 resistant were isolated. Using mRNA and binding displacement data a single high expressing clone was identified. This clone was then grown in large batches for the purpose of developing a 96 well format assay.
• 1. One plate (10 cm) with approximately 2-3 million D3 cells per plate is incubated with 1 ml of Trypsin-EDTA at room temperature for -2 min or until cells have lifted off plates. Four ml of Ham's F12 + 10% Fetal Bovine Serum + 1% Penicillin/Streptomycin + G418 (400 µg/ml) medium are added to resuspend cells and 1 ml of this is added to each large plate (15 cm) containing 19 ml of the same medium as mentioned above. • 2. The 5 large plates are incubated at 37°C + 5% CO2 for - 3 days or until the cells are confluent. • 3. After these plates are confluent, they are split into 10 large plates. Medium is aspirated off, 2 ml of Trypsin-EDTA are added to each plate and plates are incubated at RT for 2 min or until cells have lifted off the plate. Eight ml of the F12 medium (same medium as #1 above) are added to each plate (10 ml total) to resuspend the cells and 5 ml are transferred to the 2 new plates containing 15 ml of the F12 media. • 4. The 10 large plates are incubated at 37°C + 5% CO2 for ∼ 2 days or until the cells are confluent. • 5. The 10 large plates are split into 60 large plates (using Trypsin-EDTA as #3 except 4 ml of F12 medium are added to resuspend cells and 1 ml is aliquoted to 6 new plates containing 19 ml of F12 medium each). • 6. Plates are incubated at 37°C + 5% CO2 for - 3 days or until cell are confluent. • 7. The 60 large plates are then split into 60 roller bottles (100-150 million cells/bottle). Medium is aspirated off , 2 ml of Trypsin-EDTA are added to each plate and incubated at RT for -2 minutes or until cells have lifted off plates. Eight ml of F12 medium are added to each plate to resuspend cells and the entire 10 ml are added to 1 roller bottle containing 90 ml of the F12 medium. • 8. The 60 roller bottles are immediately placed on their sides and transferred to the roller bottle incubator. They are incubated at 37°C + 5% CO2 for ~ 3-5 days. Cells are spun at 30-40% motor speed in the Forma incubator. • 9. Medium is poured off and cells are washed 2X in PBS. • 10. Cells are then scraped off in 20 ml of PBS and the bottles are rinsed again with 5 ml of PBS to remove any remaining cells. Cells are stored on ice before membrane prepration. • 11. The yield for 60 D3 roller bottles has varied from - 260-500 mg. Note: All tissue culture reagents are from Gibco-BRL.
The cells are harvested into 250 ml centrifuge tubes with 100 volumes of cold phosphate buffered saline (PBS) and spun down (1200xG for 10 min at 4°C). The medium is removed and 100 ml PBS are added to each centrifuge tube, cells are resuspened and spun down again. The PBS is removed and the final pellet is homogenized in an appropriate volume of 10% DMSO with a polytron on ice at a medium setting.
A 200 µl sample membrane homogenate is added to 200 µl of 1% SDS, vortexed and allowed to stand for 5 min. Aliquots (25, 50 and 100 µl) of this mixture are assayed in duplicate following the standard Bio-Rad DC protein assay protocol (kit catalog number 500-0112) and using reagent S. Absorbance readings are made at 750 nm (note: the most accurate protein OD readings are between 0.1-0.5 units). […]
Consider `CC[C@H]1CC[C@H](NC(=O)[C@@H]2C[C@H]2CN2CCN(c3cccc4ccccc34)CC2)CC1` [compound 817101], for which the Ki was 0.547 nM. In the case of `CC[C@H]1CC[C@H](NC(=O)[C@@H]2C[C@H]2CN2CCN(c3cc(C)ccc3C)CC2)CC1` [compound 817102], the Ki turned out to be 7.75 nM. Same read-out and setting: for `CCC1CCC(NC(=O)C2CC2CN2CCCN(c3cc(C(F)(F)F)nc(C(C)(C)C)n3)CC2)CC1` (centres unmarked) [compound 817260] the value was 12.5 nM. Take `CC1CCC(NC(=O)C2CC2CN2CCCN(c3cc(C(F)(F)F)nc(C(C)(C)C)n3)CC2)CC1` (centres unmarked) [compound 817261]: the Ki is 9.23 nM. The same measure, in the same setting: for `CCCc1cc(N2CCCN(C[C@@H]3C[C@H]3C(=O)N[C@H]3CC[C@H](CC)CC3)CC2)nc(C(C)(C)C)n1` [compound 817272] the value was 1.72 nM; for `CCCc1cc(N2CCCN(C[C@@H]3C[C@H]3C(=O)N[C@H]3CC[C@H](C)CC3)CC2)nc(C(C)(C)C)n1` [compound 817273], 3.05 nM. Same read-out and setting: the figure for `C[C@H]1CC[C@H](NC(=O)[C@@H]2C[C@H]2CN2CCN(c3ncccc3Cl)CC2)CC1` [compound 817565] is 1.73 nM. Regarding `CC[C@H]1CC[C@H](NC(=O)[C@@H]2C[C@H]2CN2CCN(c3ncccc3Cl)CC2)CC1` [compound 817566], the Ki was 2.46 nM. Consider `CC1CCC(NC(=O)C2CC2CN2CCCN(c3cnccn3)CC2)CC1` (centres unmarked) [compound 817567], for which the Ki turned out to be 80.6 nM.

As for `CC[C@H]1CC[C@H](NC(=O)[C@@H]2C[C@H]2CN2CCCN(c3cnccn3)CC2)CC1` [compound 817568], the Ki came out at 36.3 nM. Take `CCC1(O)CCC(NC(=O)[C@@H]2C[C@H]2CN2CCN(c3csc4cc(C(F)(F)F)ccc34)CC2)CC1` (some centres unmarked) [compound 818497]: the Ki was 5.52 nM. With `CC1CCC(NC(=O)C2CC2CN2CCCN(c3ccccn3)CC2)CC1` (centres unmarked) [compound 818498], the Ki turned out to be 25.6 nM. Same read-out and setting: for `CC[C@H]1CC[C@H](NC(=O)[C@@H]2C[C@H]2CN2CCN(c3csc4cc(C(F)(F)F)ccc34)CC2)CC1` [compound 818499] the value was 22.1 nM. For `CCC1CCC(NC(=O)C2CC2CN2CCN(c3noc4ccsc34)CC2)CC1` (centres unmarked) [compound 818574], the Ki was 9.6 nM.

For `CN(C(=O)CCCCN1CCN(c2csc3cc(F)ccc23)CC1)c1ccccc1` [compound 822129], the Ki was 38 nM. Turning to `CCN(C(=O)CCCCN1CCN(c2csc3cc(F)ccc23)CC1)c1ccc2c(c1)OCO2` [compound 822130], the Ki was 51 nM. On the same count and under the same terms, the figure for `COc1ccc(N(C)C(=O)CCCCN2CCN(c3csc4cc(F)ccc34)CC2)cc1` [compound 822131] is 61 nM; for `CCN(C(=O)CCCCN1CCN(c2csc3cc(F)ccc23)CC1)c1c(C)cccc1O` [compound 822132] it is 18 nM. The same measure, in the same setting: for `CN(C(=O)CCCCN1CCN(c2csc3cc(F)ccc23)CC1)c1ccc(Cl)cc1` [compound 822133] the value was 17 nM; for `O=C(CCCCN1CCN(c2csc3cc(F)ccc23)CC1)Nc1cccc2ccccc12` [compound 822134], 82 nM. Still for that read-out and setting: the figure for `O=C(CCCCN1CCN(c2csc3cc(F)ccc23)CC1)Nc1ccccc1F` [compound 822135] is 3.6 nM. Regarding `CC(C)(C)c1ccc(NC(=O)CCCCN2CCN(c3csc4cc(F)ccc34)CC2)cc1` [compound 822136], the Ki was 207 nM.

For `O=C(CCCCN1CCN(c2csc3cc(F)ccc23)CC1)Nc1cccc(Oc2ccccc2)c1` [compound 822137], the Ki came out at 36 nM.

With `CN(C(=O)CCCCN1CCN(c2csc3cc(F)ccc23)CC1)c1cccc2ccccc12` [compound 822138], the Ki was determined as 81 nM. Consider `CN(C(=O)CCCCN1CCN(c2csc3cc(F)ccc23)CC1)c1ccccc1F` [compound 822139], for which the Ki was 21.2 nM.

For the molecule `CN(C(=O)CCCCN1CCN(c2csc3cc(F)ccc23)CC1)c1ccc(C(C)(C)C)cc1` [compound 822140], the Ki stood at 12.8 nM.

As for `CN(C(=O)CCCCN1CCN(c2csc3cc(F)ccc23)CC1)c1cccc(Oc2ccccc2)c1` [compound 822142], the Ki stood at 39.1 nM. Take `O=C(CCCCN1CCN(c2csc3cc(F)ccc23)CC1)N(Cc1ccccc1)c1cccc(Oc2ccccc2)c1` [compound 822143]: the Ki turned out to be 338 nM.

Turning to `COc1ccc(N(C)C(=O)CCCN2CCN(c3csc4cc(F)ccc34)CC2)cc1` [compound 822144], the Ki was determined as 144 nM. Same read-out and setting: the figure for `O=C(CCCN1CCN(c2csc3cc(F)ccc23)CC1)Nc1cccc2ccccc12` [compound 822145] is 176 nM.

With `CC(C)(C)c1ccc(NC(=O)CCCN2CCN(c3csc4cc(F)ccc34)CC2)cc1` [compound 822147], the Ki worked out at 217 nM.

For the molecule `O=C(CCCN1CCN(c2csc3cc(F)ccc23)CC1)Nc1cccc(Oc2ccccc2)c1` [compound 822148], the Ki worked out at 41.4 nM. Take `O=C(NC1CC1)[C@@H]1C[C@H]1CN1CCN(c2csc3cc(C(F)(F)F)ccc23)CC1` [compound 822202]: the Ki came out at 8.1 nM. On the same count and under the same terms, the figure for `O=C(NCc1cccnc1)[C@@H]1C[C@H]1CN1CCN(c2csc3cc(C(F)(F)F)ccc23)CC1` [compound 822203] is 30 nM; for `O=C(NCc1ccc2c(c1)OCO2)[C@@H]1C[C@H]1CN1CCN(c2csc3cc(C(F)(F)F)ccc23)CC1` [compound 822204] it is 12.6 nM.

On to `CC1C(CN2CCN(c3csc4cc(C(F)(F)F)ccc34)CC2)C1C(=O)NC1CCC1` (centres unmarked) [compound 825857], for which the Ki is 137 nM. As to `CC1C(CN2CCN(c3csc4cc(C(F)(F)F)ccc34)CC2)C1C(=O)NC1CCCCC1` (centres unmarked) [compound 825860], the Ki worked out at 130 nM.

With `CC1C(CN2CCN(c3csc4cc(C(F)(F)F)ccc34)CC2)C1C(=O)NCc1ccc(N(C)C)cc1` (centres unmarked) [compound 825871], the Ki stood at 137 nM.

The same experiment, now with this note: d3Ki, Table 2; unit inferred.
`C[C@H]1CC[C@H](NC(=O)[C@H]2C[C@@H]2CN2CCN(c3noc4ccsc34)CC2)CC1` [compound 817893] had a Ki of 245 nM. `CC1CCC(NC(=O)C2CC2CN2CCN(c3noc4ccsc34)CC2)CC1` (centres unmarked) [compound 818427] had a Ki of 6.07 nM.

The same experiment, now with this note: read-out: d3Ki.
Consider `Cc1ccccc1N1CCN(CC2CC2C(=O)NC2CCC(C)CC2)CC1` (centres unmarked) [compound 817478], for which the Ki was found to be 1.46 nM.

Take `CC[C@H]1CC[C@H](NC(=O)[C@@H]2C[C@H]2CN2CCN(c3ncc(C(F)(F)F)cc3Cl)CC2)CC1` [compound 817480]: the Ki stood at 3.07 nM.

Take `CC[C@H]1CC[C@H](NC(=O)[C@@H]2C[C@H]2CN2CCN(c3cc(C)ccc3C)CC2)CC1` [compound 817570]: the Ki came to 6.24 nM. Turning to `CC[C@H]1CC[C@H](NC(=O)[C@@H]2C[C@H]2CN2CCN(c3ccc(C)cc3C)CC2)CC1` [compound 817571], the Ki worked out at 2.85 nM. On to `CCC1CCC(NC(=O)C2CC2CN2CCN(c3ccccc3C)CC2)CC1` (centres unmarked) [compound 818675], for which the Ki came out at 0.711 nM. On the same count and under the same terms, the figure for `O=C(NCc1ccccn1)[C@@H]1CCC[C@H]1N1CCN(c2csc3cc(F)ccc23)CC1` [compound 825825] is 152 nM; for `O=C(NC1CC1)[C@@H]1CCC[C@H]1N1CCN(c2csc3cc(F)ccc23)CC1` [compound 825827] it is 54.8 nM. Turning to `CN(C)c1ccc(CNC(=O)[C@@H]2CCC[C@H]2N2CCN(c3csc4cc(F)ccc34)CC2)cc1` [compound 825828], the Ki is 21.8 nM. Turning to `O=C(NCc1ccccc1)[C@@H]1CCC[C@H]1N1CCN(c2csc3cc(F)ccc23)CC1` [compound 825830], the Ki is 64.6 nM. On the same count and under the same terms, the figure for `O=C(NCc1cccs1)[C@@H]1CCC[C@H]1N1CCN(c2csc3cc(F)ccc23)CC1` [compound 825832] is 60.3 nM.

(Values after EP1935887A1, “Heterocyclic substituted carbonyl derivatives and their use as dopamine D3 receptor ligands” (Aventis Pharmaceuticals Inc., priority 2001, dated 2002).)
